Measurements published in patent US12133486B2, “Methods of propagation of arbuscular mycorrhizal fungi (AMF) and uses thereof” (Terra Microbes, LLC, priority 2021, dated 2024).

Experiments:
[1] = tested on: AMF infections of western wheatgrass (Pascopyron smithii) roots; assay: Field plot study: AM fungal infection of western wheatgrass roots; assay type: in vivo; conditions: field plots
Excerpt: (§1) Twelve plots of size 50 cm by 50 cm were established on a homogenous site 2.54 meters (running northeast and southwest) by 4.06 meters (running southeast and northwest). Plant distribution was mostly homogeneous across the entire site, with western wheatgrass dominant. The plots were in four rows with three plots in each row. Within a row plots were 25 cm apart. Rows were 50 cm apart. An experimental unit was one plot. Treatments were replicated three times. Treatments included: controls (no treatment), potassium chloride treatment, potassium phosphate treatment, and potassium phosphite treatment. (See, FIG. 2).
(§2) Treatments: All plots received the same amount of solution. The control plots were treated with distilled water only (6.375 L). The KCl plots treated with distilled water containing the same amount of K as was needed to convert the phosphorous acid (H3PO3) to dipotassium phosphite (K2HPO3). The phosphate plots were treated with sufficient dipotassium phosphate (K2HPO4) to deliver 3 g of P per plot dissolved in the same amount of distilled water as the control plots received and the KCl plots received. The phosphite plots were treated with sufficient dipotassium phosphite (K2HPO3) to deliver 3 g of P per plot dissolved in the same amount of distilled water as the control plots received, the KCl plots received and the phosphate plots received.
The field experiment reported in this example was conducted during June through October. Plots were established during early June and treated on the 15th and 16th day (as in Example 3 above). […] Sample size and depth was as detailed above in Example 3.
Analyses of infections were performed by examining roots of wheatgrass (Pascopyron smithii). This plant was the dominant plant in all of the plots and is known to be commonly infected with AM fungi. (See, Loree M. A. J. and Williams S. E., New Phytologist, 106:735-744, 1987; and Wang B. and Qui Y.-L. 2006, Ibid.). During sampling of soils using the methodology outlined in Example 3, above, root of target plants were removed and separated by plant species, each sample being labeled and preserved in FAA solution until being further processed.
Staining of the roots was achieved according to published procedures (see, Phillips J. M. and Hayman D. S., Trans. Brit. Mycological Soc., 55:158-160, 1970) except that cotton blue lactophenol was substituted with lactic acid glycerol with trypan blue since lactophenol is toxic. The procedure used for staining was as follows: • A) Remove roots from FAA Solutions. Cut into 1 cm lengths. Place in test tube, push roots to the bottom of the test tube. • B) Cover roots with 10% KOH (10 grams of reagent grade KOH in enough distilled water to 100 ml). Let stand overnight, about 10 hours. • C) Simmer at 90° C. for one hour in a water bath (container with water and test tubes with roots over a heat source). • D) Rinse in tap water. • E) Rinse five minutes in 0.1 N HCl (3.65 […] of HCl in 1000 ml total volume with distilled water). • F) Rinse in tap water. • G) Simmer at 90° C. one hour (in water bath) in Trypan blue Lactic Acid Glycerol (distilled water, 100 ml; lactic acid (reagent grade 85 to 88%) 100 ml; glycerin (reagent grade 85% also listed as glycerol), 200 ml; trypan blue, 0.1 grams (60% dye content). • H) Rinse in tap water. • I) Place in clear lactic acid glycerol (same formulation as above except without the Trypan blue) if destaining is necessary. Samples can be simmered at 90° C. (one hour in water bath) or left at room temperature for at least 72 hours or longer. • J) Mount on standard glass slide (2.5 cm by 7.6 cm) in lactic acid glycerol. Cover slip (2.3 cm by 4.8 cm) used.
An estimate of the degree of infection of western wheatgrass was made by making microscopic scans of each slide such that 40 root segments were evaluated. The evaluation was performed using the 20× objective, e.g., 200× total magnification—eyepieces were 10× multiplied by the objective magnification. […]

[2] = tested on: AM fungi; assay: Field plot study: AMF spore counts in soil around western wheatgrass roots; assay type: in vivo; conditions: field plots
Excerpt: as §1
In this study phosphorus, either as phosphate or phosphite, was added at a rate of 120 kg of P per hectare (ha). Scaled down this equates to 3 grams of phosphorous per plot. One ha is 10,000 m^2. Each plot is 50 cm by 50 cm, or 0.25 m^2. The subsequent calculation then is 120 Kg/10,000 m^2=X/0.25 m^2; X=3.00 grams of P per plot. (See Table 2).
as §2
The field experiment reported in this example was conducted during June through October. Plots were established during early June and treated on the 15th and 16th day (as in Example 3 above). The first soil and root sampling was performed 14 days later (t=14). The second set of samples were taken 47 days later (t=61), and the third set 60 days later (t=121 days). Sample size and depth was as detailed above in Example 3.
AMF spores were evaluated in soil samples from which plant roots including plant roots of western wheatgrass had existed and had been removed. Evaluations were performed on the T=0 and the T=47 samples. These evaluations generally entailed mixing the sample with water, centrifugation, and decanting water. This step was performed to remove light organic matter and other light materials, e.g., leaf fragments. This was followed by mixing the soil with a solution of sodium hexametaphosphate (2%) in 2 M sucrose. Centrifugation results in the spores floating on the sucrose solution or suspended in it. The sucrose solution plus spores is decanted into a separatory funnel. The suspension was allowed to exit the funnel one drop at a time. The spores adhere to the inside of the funnel and once all liquid has exited the funnel the spores are washed into a petri-dish and counted under a dissecting microscope.
The specific protocol for spore extraction was as follows: • A) Weigh 5 g of air dried soil into a 20 ml centrifuge tube. For a complete sample this is replicated four times. • B) Fill each tube with water to ˜1.5 cm of the top. Stir to suspend organic matter and other light debris. Let all tubes stand for 10 minutes. • C) Centrifuge at 2000 rpm (475.2×g) for 10 minutes. Be sure tubes are placed across from each other in the centrifuge and are within 0.1 g of the same weight. • D) Pour off and discard supernatant while stirring surface and rotating tube. • E) If much organic matter and other light material remains, repeat steps B through D. • F) Add sucrose/sodium hexametaphosphate solution (2 molar sucrose containing 2% hexametaphosphate: 684.6 g of sucrose (store grade is adequate) and 20 g of sodium hexametaphosphate in one liter of solution using distilled water) to centrifuge tubes to ˜1.5 cm of top. […]

## [Cl-].[K+] [KCl, potassium chloride, reference compound]
[1]; third sampling, t = 97 days
  infection level compared to the control and phosphorus treated plants: small depression in infection levels
[1]; western wheatgrass roots, mean n = 3, first sampling
  AM Infection t = 0 days: 31Aa Per forty 1.1 mm root segments
[1]; western wheatgrass roots, mean n = 3, second sampling
  AM Infection t = 47 days: 34Aab Per forty 1.1 mm root segments
[1]; western wheatgrass roots, mean n = 3, third sampling
  AM Infection t = 97 days: 36BCabc Per forty 1.1 mm root segments
[2]; mean n = 3, P added at 120 kg/ha (KCl: same K), second sampling
  Total Spores t = 47 days: 14806Ab Per 100 g soil
[2]; mean n = 3, P added at 120 kg/ha (KCl: same K), t = 0 = first sampling, 14 days after treatment
  Total Spores t = 0 days: 6398Aa Per 100 g soil
[2]; second sampling, t = 47
  spore numbers compared with the control: significant increase in spore numbers from the control
